Patent US11261186B2, “Biaryl derivative as GPR120 agonist” (LG CHEM, LTD., priority 2014, dated 2022)

biological target: T1, hGPR120 (Homo sapiens, UniProt Q5NUL3); test: Measurement of Activity of GPR120 Agonist (Cell-Based Assay), Calcium 5 dye fluorescence; conditions: CHO-K1 cells expressing Ga16 and hGPR120
T1 construct: expressed in transfected cells; host or cells: CHO-K1
T1 sequence (Q5NUL3 1-361): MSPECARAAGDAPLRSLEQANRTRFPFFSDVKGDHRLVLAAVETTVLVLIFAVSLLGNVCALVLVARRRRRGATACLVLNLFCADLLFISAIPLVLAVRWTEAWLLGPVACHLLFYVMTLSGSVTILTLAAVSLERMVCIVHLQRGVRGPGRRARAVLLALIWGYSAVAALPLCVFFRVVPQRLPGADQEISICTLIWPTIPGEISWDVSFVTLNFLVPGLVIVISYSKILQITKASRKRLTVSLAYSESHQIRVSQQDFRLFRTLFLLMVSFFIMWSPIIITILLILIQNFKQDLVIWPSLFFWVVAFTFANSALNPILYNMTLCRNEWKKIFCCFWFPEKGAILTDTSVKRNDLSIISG
Method in brief: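 Agonist-evoked calcium signal, expressed as percent relative to DMSO-only wells, read at 485/525 nm after serial-dilution addition (0.5% DMSO final). Cells were hGPR120/Gα16 CHO-K1, seeded 18 h earlier and dye-loaded for 1 h at 37°C.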

Row | SMILES | EC50
1 | CN(CCCC(=O)O)c1c(F)cc(-c2cccc(OC3CCC3)n2)cc1F [Example 205, 4-{[4-(6-cyclobutoxy-pyridin-2-yl)-2,6-difluoro-phenyl]-methyl-amino}-butyric acid] | < 200 nM
2 | CN(CCCC(=O)O)c1c(F)cc(-c2cccnc2OC2CCC2)cc1F [Example 206, 4-{[4-(2-cyclobutoxy-pyridin-3-yl)-2,6-difluoro-phenyl]-methyl-amino}-butyric acid] | < 200 nM
3 | O=C(O)C1CC1CNc1ccc(-c2cccnc2SC2CCCC2)cc1 (centres unmarked) [Example 211, 2-{[4-(2-cyclopentylsulfanyl-pyridin-3-yl)-phenylamino]-methyl}-cyclopropanecarboxylic acid] | 200 to 2000 nM
4 | CC(C)Oc1ncccc1-c1cc(F)c(N(C)CCCC(=O)O)c(F)c1 [Example 214, 4-{[2,6-difluoro-4-(2-isopropoxy-pyridin-3-yl)-phenyl]-methyl-amino}-butyric acid] | 200 to 2000 nM
5 | COc1ncccc1-c1cc(F)c(N(C)CCCC(=O)O)c(F)c1 [Example 219, 4-{[2,6-difluoro-4-(2-methoxy-pyridin-3-yl)-phenyl]-methyl-amino}-butyric acid] | 2000 to 20000 nM
6 | CNc1ccccc1-c1cc(F)c(N(C)CCCC(=O)O)c(F)c1 [Example 222, 4-[(3,5-difluoro-2′-methylamino-biphenyl-4-yl)-methyl-amino]-butyric acid] | 200 to 2000 nM
7 | CCN(CCCC(=O)O)c1c(F)cc(-c2cccnc2SC2CCC2)cc1F [Example 224, 4-{[4-(2-cyclobutylsulfanyl-pyridin-3-yl)-2,6-difluoro-phenyl]-ethyl-amino}-butyric acid] | 200 to 2000 nM
8 | CCN(CCCC(=O)O)c1c(F)cc(-c2cccnc2OCC2CCC2)cc1F [Example 225, 4-{[4-(2-cyclobutylmethoxy-pyridin-3-yl)-2,6-difluoro-phenyl]-ethyl-amino}-butyric acid] | 200 to 2000 nM
9 | CCN(CCCC(=O)O)c1c(F)cc(-c2cccnc2OC(C)C)cc1F [Example 226, 4-{[2,6-difluoro-4-(2-isopropoxy-pyridin-3-yl)-phenyl]-ethyl-amino}-butyric acid] | 200 to 2000 nM
10 | CC(CCCC(=O)O)c1c(F)cc(-c2cccnc2OC2COC2)cc1F (centres unmarked) [Example 232, 5-{2,6-difluoro-4-[2-(oxetan-3-yloxy)-pyridin-3-yl]-phenyl}-hexanoic acid] | 200 to 2000 nM
11 | O=C(O)CCCOc1ccc(-c2cccnc2OC2CCC2)cc1F [Example 233, 4-[4-(2-cyclobutoxy-pyridin-3-yl)-2-fluoro-phenoxy]-butyric acid] | 200 to 2000 nM
12 | O=C(O)CCCOc1ccc(-c2cccnc2SC2CCCC2)cc1F [Example 236, 4-[4-(2-cyclopentylsulfanyl-pyridin-3-yl)-2-fluoro-phenoxy]-butyric acid] | < 200 nM
13 | CC(CCCCC(=O)O)c1c(F)cc(-c2cccnc2OC2CCCC2)cc1F (centres unmarked) [Example 237, 6-[4-(2-cyclopentyloxy-pyridin-3-yl)-2,6-difluoro-phenyl]-heptanoic acid] | < 200 nM
14 | CC(CCCCC(=O)O)c1c(F)cc(-c2cccnc2SC2CCCC2)cc1F (centres unmarked) [Example 238, 6-[4-(2-cyclopentylsulfanyl-pyridin-3-yl)-2,6-difluoro-phenyl]-heptanoic acid] | < 200 nM
15 | O=C(O)CCCSc1ccc(-c2cccnc2OCC2CC2)cc1F [Example 239, 4-[4-(2-cyclopropylmethoxy-pyridin-3-yl)-2-fluoro-phenylsulfanyl]-butyric acid] | < 200 nM
16 | O=C(O)CCCOc1ccc(-c2cccnc2OCC2CC2)cc1F [Example 240, 4-[4-(2-cyclopropylmethoxy-pyridin-3-yl)-2-fluoro-phenoxy]-butyric acid] | 200 to 2000 nM
17 | O=C(O)CCCOc1ccc(-c2cccnc2OCC2CCC2)cc1F [Example 241, 4-[4-(2-cyclobutylmethoxy-pyridin-3-yl)-2-fluoro-phenoxy]-butyric acid] | < 200 nM
18 | O=C(O)CCCCc1ccc(-c2cccnc2OC2CCCC2)cc1F [Example 244, 5-[4-(2-cyclopentyloxy-pyridin-3-yl)-2-fluoro-phenyl]-pentanoic acid] | < 200 nM
19 | O=C(O)CCCCc1ccc(-c2cccnc2OC2CCC2)cc1F [Example 245, 5-[4-(2-cyclobutoxy-pyridin-3-yl)-2-fluoro-phenyl]-pentanoic acid] | < 200 nM
20 | O=C(O)CCCCc1ccc(-c2cccnc2OCC2CCC2)cc1F [Example 246, 5-[4-(2-cyclobutylmethoxy-pyridin-3-yl)-2-fluoro-phenyl]-pentanoic acid] | < 200 nM
21 | O=C(O)CCCCc1ccc(-c2cccnc2OCC2CC2)cc1F [Example 247, 5-[4-(2-cyclopropylmethoxy-pyridin-3-yl)-2-fluoro-phenyl]-pentanoic acid] | < 200 nM
22 | O=C(O)CCCCc1ccc(-c2cccnc2SC2CCCC2)cc1F [Example 248, 5-[4-(2-cyclopentylsulfanyl-pyridin-3-yl)-2-fluoro-phenyl]-pentanoic acid] | < 200 nM

Next, values leading:

Row | EC50 | SMILES
23 | < 200 nM | CCCSc1ncccc1-c1cc(F)c(N(C)CCCC(=O)O)c(F)c1 [Example 207, 4-{[2,6-difluoro-4-(2-propylsulfanyl-pyridin-3-yl)-phenyl]-methyl-amino}-butyric acid]
24 | < 200 nM | CCSc1ncccc1-c1cc(F)c(N(C)CCCC(=O)O)c(F)c1 [Example 208, 4-{[4-(2-ethylsulfanyl-pyridin-3-yl)-2,6-difluoro-phenyl]-methyl-amino}-butyric acid]
25 | < 200 nM | CN(CCCC(=O)O)c1ccc(-c2cccnc2SC2CCC2)cc1F [Example 209, 4-{[4-(2-cyclobutylsulfanyl-pyridin-3-yl)-2-fluoro-phenyl]-methyl-amino}-butyric acid]
26 | < 200 nM | O=C(O)C1CC1CNc1c(F)cc(-c2cccnc2SC2CCCC2)cc1F (centres unmarked) [Example 210, 2-{[4-(2-cyclopentylsulfanyl-pyridin-3-yl)-2,6-difluoro-phenylamino]-methyl}-cyclopropanecarboxylic acid]
27 | < 200 nM | CC(C)Sc1ncccc1-c1ccc(N(C)CCCC(=O)O)c(F)c1 [Example 212, 4-{[2-fluoro-4-(2-isopropylsulfanyl-pyridin-3-yl)-phenyl]-methyl-amino}-butyric acid]
28 | < 200 nM | CN(CCCC(=O)O)c1ccc(-c2cccnc2SC2CCCC2)cc1F [Example 213, 4-{[4-(2-cyclopentylsulfanyl-pyridin-3-yl)-2-fluoro-phenyl]-methyl-amino}-butyric acid]
29 | < 200 nM | CN(CCCC(=O)O)c1c(F)cc(-c2ccccc2NC2CCCC2)cc1F [Example 215, 4-[(2′-cyclopentylamino-3,5-difluoro-biphenyl-4-yl)-methyl-amino]-butyric acid]
30 | < 200 nM | CC(C)Oc1ccc(F)cc1-c1cc(F)c(N(C)CCCC(=O)O)c(F)c1 [Example 216, 4-[methyl-(3,5,5′-trifluoro-2′-isopropoxy-biphenyl-4-yl)-amino]-butyric acid]
31 | < 200 nM | Cc1cnc(OC2CCCC2)c(-c2cc(F)c(N(C)CCCC(=O)O)c(F)c2)c1 [Example 217, 4-{[4-(2-cyclopentyloxy-5-methyl-pyridin-3-yl)-2,6-difluoro-phenyl]-methyl-amino}-butyric acid]
32 | < 200 nM | CN(CCCC(=O)O)c1c(F)cc(-c2cccnc2OCC2CCC2)cc1F [Example 218, 4-{[4-(2-cyclobutylmethoxy-pyridin-3-yl)-2,6-difluoro-phenyl]-methyl-amino}-butyric acid]
33 | < 200 nM | CN(CCCC(=O)O)c1c(F)cc(-c2ccccc2N2CCCC2)cc1F [Example 221, 4-[(3,5-difluoro-2′-pyrrolidin-1-yl-biphenyl-4-yl)-methyl-amino]-butyric acid]
34 | < 200 nM | CC(C)N(C)c1ccccc1-c1cc(F)c(N(C)CCCC(=O)O)c(F)c1 [Example 223, 4-{[3,5-difluoro-2′-(isopropyl-methyl-amino)-biphenyl-4-yl]-methyl-amino}-butyric acid]
35 | < 200 nM | C[C@H](CCCC(=O)O)c1c(F)cc(-c2cccnc2SC2CCC2)cc1F [Example 227, (R)-5-[4-(2-cyclobutylsulfanyl-pyridin-3-yl)-2,6-difluoro-phenyl]-hexanoic acid]
36 | < 200 nM | C[C@H](C/C=C/C(=O)O)c1c(F)cc(-c2cccnc2SC2CCC2)cc1F [Example 228, (E)-(R)-5-[4-(2-cyclobutylsulfanyl-pyridin-3-yl)-2,6-difluoro-phenyl]-hex-2-enoic acid]
37 | < 200 nM | C[C@@H](CCCC(=O)O)c1c(F)cc(-c2cccnc2SC2CCC2)cc1F [Example 229, (S)-5-[4-(2-cyclobutylsulfanyl-pyridin-3-yl)-2,6-difluoro-phenyl]-hexanoic acid]
38 | < 200 nM | CC(CCCC(=O)O)c1c(F)cc(-c2cccnc2OC2CCOC2)cc1F (centres unmarked) [Example 230, 5-{2,6-difluoro-4-[2-(tetrahydro-furan-3-yloxy)-pyridin-3-yl]-phenyl}-hexanoic acid]
39 | < 200 nM | CC(CCCC(=O)O)c1c(F)cc(-c2cccnc2OC2CCOCC2)cc1F (centres unmarked) [Example 231, 5-{2,6-difluoro-4-[2-(tetrahydro-pyran-4-yloxy)-pyridin-3-yl]-phenyl}-hexanoic acid]
40 | < 200 nM | O=C(O)CCCOc1ccc(-c2cccnc2OC2CCCC2)cc1F [Example 234, 4-[4-(2-cyclopentyloxy-pyridin-3-yl)-2-fluoro-phenoxy]-butyric acid]
41 | < 200 nM | O=C(O)CCCOc1ccc(-c2cccnc2SC2CCC2)cc1F [Example 235, 4-[4-(2-cyclobutylsulfanyl-pyridin-3-yl)-2-fluoro-phenoxy]-butyric acid]
